According to US20160345827A1, “TWO-PHOTON MICROSCOPY IMAGING RETINA CELL DAMAGE” (POLGENIX, INC., priority 2014, published 2016):
Entries after “also recorded” stand apart in the source; their conditions may differ. Where two headings read alike, the source gives them in different places.

Assays:
[1] = test system: Abca4^−/−Rdh8^−/− (Dko) retinal cultures; assay: ex vivo Dko retinal cultures incubated with atRAL (morphology, LDH); format: cell-based; details: 6 h at 37° C; for effect on atRAL-induced cell death rate (LDH assay): Ret-NH2 30 μM or Apo 300 μM together with 30 μM atRAL
Description: FIGS. 11(A-B) illustrate images showing retinal degeneration is induced by atRAL in ex vivo Dko retinal cultures. Retinas were removed from the eyecups of 4-wk-old Abca4^−/−Rdh8^−/− (Dko) mice and cultured for 16 h at 37° C. Retinas were then incubated further with/without 30 μM of atRAL in the presence/absence of experimental drugs for 6 h at 37° C. Vehicle (DMSO), retinylamine (Ret-NH2) at 30 μM, or apocynin (Apo) at 300 μM was applied together with atRAL. (A) Retinal morphology was examined after incubation with atRAL. […] Bars indicate SD (n=3). *P<0.05.
(§1) Eyes were enucleated, washed with a penicillin-streptomycin solution (Sigma), and rinsed with Hank's balanced salt solution (HyClone). Prepared mouse eyecups were flattened by creating retinal flaps. Flattened retinas were transferred onto filter paper and the retina was gently peeled off from the RPE/choroid. All these procedures were performed under a surgical microscope. Each retina on filter paper was placed into a well of a 12-well plate filled with 0.5 mL of DMEM (HyClone) with 10% FBS and incubated for 16 h at 37° C. Retinas then were washed twice with 0.5 mL of fresh DMEM containing 10% FBS and finally incubated again with/without 30 μM of atRAL for 6 h at 37° C. A lactate dehydrogenase (LDH) assay was performed to determine cellular death rates with a LDH activity assay kit (BioVision). The percentage of cytotoxicity was calculated as [(a retina with atRAL—a retina without atRAL)/(lysis control—a retina without atRAL)]×100.

[2] = test system: retinal explant tissue cultures; format: cell-based; details: 6 h at 37° C, WT retinas; for protection of retinal morphology against atRAL-induced damage: Ret-NH2 30 μM or apocynin 300 μM together with 30 μM atRAL; for prevention of atRAL-induced photoreceptor apoptosis (TUNEL staining): retinylamine 30 μM or apocynin 300 μM together with 30 μM atRAL
Description: FIGS. 6(A-B) illustrate images and a plot showing retinal degeneration is induced by atRAL in ex vivo retinal cultures. Retinas were removed from the eyecups of 4-wk-old C57BL/6J mice and cultured for 16 h at 37° C. Then retinas were incubated further with/without 30 μM of atRAL in the presence/absence of experimental drugs for 6 h at 37° C. Vehicle (DMSO), retinylamine (Ret-NH2) at 30 μM, or apocynin (Apo) at 300 μM was applied, together with atRAL. (A) Retinal morphology was examined after incubation with atRAL and with and without drugs. […] (B) TUNEL staining was performed with the ApoTag Peroxidase in Situ Apoptosis Detection Kit. Counter nuclear staining was accomplished with methyl green. […] (D) Retinas were removed from eyecups of 4-wk-old C57BL/6J mice and cultured with or without 30 μM of atRAL for 24 h at 37° C. After incubation, retinas were washed twice with PBS and then examined by TPM. Spectra from photoreceptor outer segments are shown (Left) along with representative magnified images (Right). Spectra from retinas cultured with atRAL featured a broad maximum absorption at 600 nm.
as §1
The primary cause of acute retinal degeneration after bright light exposure in Abca4^−/−Rdh8^−/− mice is the delayed clearance of atRAL from photoreceptors. […] Thus, to examine whether retinal tissue lacking RPE cells can display degenerative changes similar to those observed in in vivo, we performed ex vivo culture experiments with retinal explants coincubated with atRAL. Neural retinas were dissected from eyes of 4-wk-old WT mice, and incubated with 30 μM of atRAL in the presence of control vehicle, 30 μM of retinylamine or 300 μM of apocynin for 6 h at 37° C. […] Cell death rates were calculated by measuring lactate dehydrogenase released into tissue culture supernatants from dying cells.

Abca4^−/−Rdh8^−/− mice = assay: light-induced retinal degeneration in Abca4^−/−Rdh8^−/− mice, TPM and histology at day 7; details: for light-induced retinal degeneration (retinal histology): Ret-NH2 1 mg per mouse oral gavage 16 h before, or Apo 1 mg/mouse i.p. 30 min before 10,000 lx light for 60 min, day 7
retinoid cycle = retinoid cycle inhibition before light exposure, LC/MS metabolic profile of retina; format: in vivo; details: pretreatment of Abca4^−/−Rdh8^−/− mice several hours before light exposure
Description: At day 3 after light exposure, mouse retinas were dissected and homogenized in 0.3 mL of ice-cold acetonitrile. Samples were vortexed for 30 s followed by centrifugation for 15 min at 16,000×g. Clear supernatants were collected and used directly for LC/MS analyses. Each retinal extract was injected onto a reverse-phase C18 Phenomenex HPLC column (250×4.60 mm; 5 μm) preequilibrated with 5% acetonitrile in water. […] Total ion chromatograms were analyzed with XCMS software available online at the Scripps Center for Metabolomics.
Fluorophores responsible for AF in the retina could be an indicator of global changes in the metabolic profile of this tissue. To evaluate and quantify these changes as well as determine whether they depend on a functional retinoid cycle, we used both genetically altered (Lrat^−/−) and pharmacologically treated (retinylamine) mice with metabolic profiles that were compared with light-exposed and dark-adapted Abca4^−/−Rdh8^−/− mice by using a LC/MS approach. […] To investigate the origin of these light-induced alterations, we first analyzed the metabolic profile of retinal samples isolated from light-exposed lecithin:retinol acyltransferase (LRAT)-deficient mice that cannot produce visual chromophore. […]

[3] = after treatment with Ret-NH2; diminished 7 days after treatment; cited from earlier work
[4] = test system: RPE of Abca4^−/−Rdh8^−/− (DKO) mice; assay: two-photon trans-pupil imaging of fluorescent granules in RPE after bright light; details: 2 mg Ret-NH2 gavage 13 to 16 h prior to 10,000 lux for 60 min; ex vivo imaging 7 and 14 days after light
From the text: All animal procedures and experiments were approved by the Institutional Animal Care and Use Committee at Case Western Reserve University and conformed to recommendations of both the American Veterinary Medical Association Panel on Euthanasia and the Association for Research in Vision and Ophthalmology. B6(Cg)-Tyrc-2J/J mice were purchased from The Jackson Laboratory. Abca4^−/−Rdh8^−/− (DKO) and Rpe65^−/− mice were generated and genotyped as previously described. Human opsinGFP fusion, knockin hrhoG/hrhoG mice, expressing human rhodopsinGFP in photoreceptor outer segments were kindly provided by Dr. John H. Wilson (Baylor College of Medicine). […]
After treatment with Ret-NH2 the content of fluorescent retinyl esters increases in the eye as reported previously. […] For quantification of the impact of drug treatment, the same detector settings were used for mice that were treated and not treated with Ret-NH2. […]
The tunable, 690-1050 nm, Chameleon VisionS generated 75 fs laser pulses at 80 MHz pulse repetition frequency. […] In twophoton imaging, the excitation matters most because the emission fluorescence is generated only in the focal spot; therefore, it is critical to achieve a tightly focused excitation beam. […]

[5] = test system: RPE of wild type (WT) mice; assay: two-photon imaging of retinosomes in WT mouse RPE; format: in vivo; details: WT mice pre-treated with Ret-NH2, white light 5,000 lux before imaging, laser power reduced by 17%
Description: To enhance the visibility of retinosomes, WT mice without any drug treatment or treated with Ret-NH2 were exposed to 5,000 lux of white light for 5-30 min, 1 to 3 h before imaging.
To assess the capabilities of our system to characterize the RPE and retina we imaged ex vivo eyes of mice with different genetic backgrounds. The brightest RPE images were obtained in Rpe65^−/− mice in response to 730 nm excitation (FIG. 17a). The brightly fluorescent granules correspond to enlarged retinosomes, which are a characteristic feature of the RPE only in Rpe65^−/− mice due to blockade of 11cisretinol synthesis. […] We also imaged and counted the neuronal nuclei in the ganglion cell layer at 0.6 mm eccentricity and found 2,500 nuclei per mm2 (FIG. 17d), which is smaller than previously reported about 7,000 per mm2 of combined ganglion and displaced amacrine cells in stained retina. This difference arises from: a) nuclei are free of fluorophores, and are only visible as dark structures against brighter cell bodies, which can lead to obstruction of the nuclei by axon bundles; b) not all the cell nuclei were at the same imaging depth; and c) the estimates of the area could be off by 40% because they were determined by comparing measurements of optic disk in en face TPM images to histological sections. […]

SMILES | effect on atRAL-induced cell death rate (LDH assay) ([1]; Dko retinas) | protection of retinal morphology against atRAL-induced damage [2] | prevention of atRAL-induced photoreceptor apoptosis (TUNEL staining) ([2]; listed as APO) | light-induced retinal degeneration (retinal histology) (Abca4^−/−Rdh8^−/− mice) | retinal morphology (ONL) after incubation with atRAL ([1]; 30 μM atRAL with vehicle, Dko retinas) | retinal cell death (LDH assay) caused by atRAL ([1]; 30 μM atRAL, Dko retinal culture supernatants) | prevention of atRAL-induced photoreceptor apoptosis (TUNEL staining) ([2]; listed as Ret-NH2) | regeneration of visual chromophore in the eye (retinoid cycle) | content of fluorescent retinyl esters in the eye [3] | accumulation of fluorescent granules in the RPE [4] | visibility of retinosomes in RPE [5] | RPE autofluorescence appearance by TPM (Abca4^−/−Rdh8^−/− mice; 730 nm and 850 nm excitation, day 7 after light, Ret-NH2 1 mg oral gavage, Apo 1 mg i.p.)
COc1cc(C(C)=O)ccc1O [apocynin] | reduced | protected the ONL and INL | protected the ONL and INL | can be prevented; also recorded: conferred protection | – | – | – | – | – | – | – | –
CC1=C(/C=C/C(C)=C/C=C/C(C)=C/C=O)C(C)(C)CCC1 [atRAL, all-trans-retinaldehyde] | – | – | – | – | markedly disrupted | caused retinal cell death | – | – | – | – | – | –
CC1=C(/C=C/C(C)=C/C=C/C(C)=C/CN)C(C)(C)CCC1 [retinylamine] | reduced | protected the ONL and INL | – | can be prevented; also recorded: conferred protection | – | – | protected the ONL and INL | markedly reduced | increases | no deposits; also recorded: protects RPE | more clearly visible | increased fluorescence of retinosomes
